Source: PubChem BioAssay AID2060604 (Molecular Pharmacology Branch, DTP, NCI, 2025)
Values joined by “and” are separate entries in the source; they are usually repeats but may differ in a detail not shown here. Equal values may be shown once.

System: 379773-124-R-J2-PDC complex spheroids, viability % test/control
Test: Anticancer human tumor 379773-124-R-J2-PDC patient-derived endometrial carcinoma cell line growth inhibition [CLK]
Conditions: for viability, T/C: stronger effect = lower value
Method in brief: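 Patient-derived tumor cells grown as complex spheroids with HUVEC endothelial cells and mesenchymal stem cells, treated with drug combinations. Concentrations descend in half-log steps from near clinical Cmax, or from 10 microM if Cmax unknown.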

[1] = curve of first compound, second compound 0.0316 µM
[2] = curve of first compound, second compound 0.1 µM
[3] = curve of first compound, second compound 0.316 µM
[4] = curve of first compound, second compound 1 µM
[5] = curve of first compound, second compound 3.16 µM
[6] = curve of first compound, second compound 10 µM
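Also: compound exposure lasted seven days before the viability readout.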
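For viability, T/C in this document: 100% = DMSO vehicle control wells.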

Q: For `NC(=O)C(=Cn1cnc(-c2cc(C(F)(F)F)cc(C(F)(F)F)c2)n1)c1cncnc1` + CN1CCN(c2cc(C(=O)Nc3cc4cc(-c5cnn(C)c5)ccc4cn3)ccn2)CC1, which IC50 [1] is on record?
A: 59 nM

Q: What about the IC50 [2] of the same molecule?
A: 47.7 nM

Q: What about the IC50 [3] of the same molecule?
A: < 9.49 nM

Q: And the IC50 [4]?
A: < 9.49 nM

Q: What about the IC50 [5] of the same molecule?
A: < 9.49 nM

Q: And the IC50 [6]?
A: < 9.49 nM

Q: And the viability, T/C (second compound 0.0316 µM, first compound 0.00949 µM)?
A: 84.8%

Q: What about the viability, T/C (second compound 0.0316 µM, first compound 0.03 µM) of the same molecule?
A: 64.5%

Q: And the viability, T/C (second compound 0.0316 µM, first compound 0.0949 µM)?
A: 39.2%

Q: And the viability, T/C (second compound 0.0316 µM, first compound 0.3 µM)?
A: 22.6%

Q: What about the viability, T/C (second compound 0.0316 µM, first compound 0.949 µM) of the same molecule?
A: 11.4%

Q: And the viability, T/C (second compound 0.0316 µM, first compound 3 µM)?
A: 5.29%

Q: What about the viability, T/C (second compound 0.1 µM, first compound 0.00949 µM) of the same molecule?
A: 60.4%

Q: And the viability, T/C (second compound 0.1 µM, first compound 0.03 µM)?
A: 57.7%

Q: And the viability, T/C (second compound 0.1 µM, first compound 0.0949 µM)?
A: 39.9%

Q: What about the viability, T/C (second compound 0.1 µM, first compound 0.3 µM) of the same molecule?
A: 17.9%

Q: And the viability, T/C (second compound 0.1 µM, first compound 0.949 µM)?
A: 8.03%

Q: And the viability, T/C (second compound 0.1 µM, first compound 3 µM)?
A: 2.96%

Q: And the viability, T/C (second compound 0.316 µM, first compound 0.00949 µM)?
A: 16.4%

Q: What about the viability, T/C (second compound 0.316 µM, first compound 0.03 µM) of the same molecule?
A: 14.8%

Q: And the viability, T/C (second compound 0.316 µM, first compound 0.0949 µM)?
A: 7.32%

Q: And the viability, T/C (second compound 0.316 µM, first compound 0.3 µM)?
A: 3.49%

Q: And the viability, T/C (second compound 0.316 µM, first compound 0.949 µM)?
A: 1.06%

Q: What about the viability, T/C (second compound 0.316 µM, first compound 3 µM) of the same molecule?
A: 0.04%

Q: And the viability, T/C (second compound 1 µM, first compound 0.00949 µM)?
A: 0.1%

Q: What about the viability, T/C (second compound 1 µM, first compound 0.03 µM) of the same molecule?
A: 0.12%

Q: And the viability, T/C (second compound 1 µM, first compound 0.0949 µM)?
A: 0.3%

Q: What about the viability, T/C (second compound 1 µM, first compound 0.3 µM) of the same molecule?
A: 0.14%

Q: And the viability, T/C (second compound 1 µM, first compound 0.949 µM)?
A: 1.96%

Q: What about the viability, T/C (second compound 1 µM, first compound 3 µM) of the same molecule?
A: 0.06%

Q: And the viability, T/C (second compound 3.16 µM, first compound 0.00949 µM)?
A: 2.45%

Q: And the viability, T/C (second compound 3.16 µM, first compound 0.03 µM)?
A: 0.72%

Q: What about the viability, T/C (second compound 3.16 µM, first compound 0.0949 µM) of the same molecule?
A: 0.44%

Q: What about the viability, T/C (second compound 3.16 µM, first compound 0.3 µM) of the same molecule?
A: 0.13%

Q: What about the viability, T/C (second compound 3.16 µM, first compound 0.949 µM) of the same molecule?
A: 0.11%

Q: And the viability, T/C (second compound 3.16 µM, first compound 3 µM)?
A: 0.11%

Q: And the viability, T/C (second compound 10 µM, first compound 0.00949 µM)?
A: 0.45%

Q: What about the viability, T/C (second compound 10 µM, first compound 0.03 µM) of the same molecule?
A: 0.13%

Q: And the viability, T/C (second compound 10 µM, first compound 0.0949 µM)?
A: 1.03%

Q: And the viability, T/C (second compound 10 µM, first compound 0.3 µM)?
A: 0.18%

Q: And the viability, T/C (second compound 10 µM, first compound 0.949 µM)?
A: 0.19%

Q: And the viability, T/C (second compound 10 µM, first compound 3 µM)?
A: 0.17%

Q: For `CCN1CCN(Cc2ccc(Nc3ncc(F)c(-c4cc(F)c5nc(C)n(C(C)C)c5c4)n3)nc2)CC1` + CNC(=O)c1ccc(Nc2nc(OC3CCCC3)c3c(-c4ccc5nc(C)oc5c4)c[nH]c3n2)c(OC)c1, which IC50 [1] is on record?
A: > 1000 nM

Q: What about the IC50 [2] of the same molecule?
A: < 3.16 nM

Q: What about the IC50 [3] of the same molecule?
A: < 3.16 nM

Q: What about the IC50 [4] of the same molecule?
A: < 3.16 nM

Q: What about the IC50 [5] of the same molecule?
A: < 3.16 nM

Q: What about the IC50 [6] of the same molecule?
A: < 3.16 nM

Q: And the viability, T/C (second compound 0.0316 µM, first compound 0.00316 µM)?
A: 74.5%

Q: What about the viability, T/C (second compound 0.0316 µM, first compound 0.01 µM) of the same molecule?
A: 77.5%

Q: What about the viability, T/C (second compound 0.0316 µM, first compound 0.0316 µM) of the same molecule?
A: 75.4%

Q: And the viability, T/C (second compound 0.0316 µM, first compound 0.1 µM)?
A: 76.6%

Q: And the viability, T/C (second compound 0.0316 µM, first compound 0.316 µM)?
A: 87.1%

Q: And the viability, T/C (second compound 0.0316 µM, first compound 1 µM)?
A: 81.5%

Q: What about the viability, T/C (second compound 0.1 µM, first compound 0.00316 µM) of the same molecule?
A: 32.6%

Q: And the viability, T/C (second compound 0.1 µM, first compound 0.01 µM)?
A: 48.7%

Q: And the viability, T/C (second compound 0.1 µM, first compound 0.0316 µM)?
A: 40.5%

Q: And the viability, T/C (second compound 0.1 µM, first compound 0.1 µM)?
A: 31.1%

Q: What about the viability, T/C (second compound 0.1 µM, first compound 0.316 µM) of the same molecule?
A: 42.7%

Q: And the viability, T/C (second compound 0.1 µM, first compound 1 µM)?
A: 37.2%

Q: What about the viability, T/C (second compound 0.316 µM, first compound 0.00316 µM) of the same molecule?
A: 31.9%

Q: And the viability, T/C (second compound 0.316 µM, first compound 0.01 µM)?
A: 41.5%

Q: And the viability, T/C (second compound 0.316 µM, first compound 0.0316 µM)?
A: 40%

Q: And the viability, T/C (second compound 0.316 µM, first compound 0.1 µM)?
A: 38%

Q: What about the viability, T/C (second compound 0.316 µM, first compound 0.316 µM) of the same molecule?
A: 44.6%

Q: What about the viability, T/C (second compound 0.316 µM, first compound 1 µM) of the same molecule?
A: 31.5%

Q: What about the viability, T/C (second compound 1 µM, first compound 0.00316 µM) of the same molecule?
A: 43.2%

Q: What about the viability, T/C (second compound 1 µM, first compound 0.01 µM) of the same molecule?
A: 30.3%

Q: What about the viability, T/C (second compound 1 µM, first compound 0.0316 µM) of the same molecule?
A: 31.3%

Q: And the viability, T/C (second compound 1 µM, first compound 0.1 µM)?
A: 30%

Q: What about the viability, T/C (second compound 1 µM, first compound 0.316 µM) of the same molecule?
A: 36%

Q: What about the viability, T/C (second compound 1 µM, first compound 1 µM) of the same molecule?
A: 34.1%

Q: What about the viability, T/C (second compound 3.16 µM, first compound 0.00316 µM) of the same molecule?
A: 33.8%

Q: What about the viability, T/C (second compound 3.16 µM, first compound 0.01 µM) of the same molecule?
A: 31.4%

Q: And the viability, T/C (second compound 3.16 µM, first compound 0.0316 µM)?
A: 34.2%

Q: And the viability, T/C (second compound 3.16 µM, first compound 0.1 µM)?
A: 31.5%

Q: And the viability, T/C (second compound 3.16 µM, first compound 0.316 µM)?
A: 44.9%

Q: And the viability, T/C (second compound 3.16 µM, first compound 1 µM)?
A: 28.5%

Q: What about the viability, T/C (second compound 10 µM, first compound 0.00316 µM) of the same molecule?
A: 32.5%

Q: And the viability, T/C (second compound 10 µM, first compound 0.01 µM)?
A: 24.3%

Q: And the viability, T/C (second compound 10 µM, first compound 0.0316 µM)?
A: 35.7%

Q: And the viability, T/C (second compound 10 µM, first compound 0.1 µM)?
A: 30.9%

Q: What about the viability, T/C (second compound 10 µM, first compound 0.316 µM) of the same molecule?
A: 37.3%

Q: What about the viability, T/C (second compound 10 µM, first compound 1 µM) of the same molecule?
A: 33.2%

Q: `O=c1[nH]cc(F)c(=O)[nH]1` was tested. Which viability, T/C (compound 0.0316 µM) did it give?
A: 90.7% and 97.5%

Q: And the viability, T/C (compound 0.1 µM)?
A: 107% and 93.2%

Q: And the viability, T/C (compound 0.316 µM)?
A: 91.5% and 98.6%

Q: What about the viability, T/C (compound 1 µM) of the same molecule?
A: 97.5% and 100%

Q: And the viability, T/C (compound 3.16 µM)?
A: 70.2% and 81.4%

Q: And the viability, T/C (compound 10 µM)?
A: 50.9% and 73.7%

Q: What about the IC50 (curve of compound) of the same molecule?
A: > 10000 nM

Q: `COC1C=CCC(C)C(C)S(=O)(=O)NC(=O)c2ccc3c(c2)N(CC2CCC21)CC1(CCCc2cc(Cl)ccc21)CO3` (stereo not drawn) was tested. Which viability, T/C (compound 0.0316 µM) did it give?
A: 96.5% and 98.1%

Q: What about the viability, T/C (compound 0.1 µM) of the same molecule?
A: 91.1% and 82%

Q: What about the viability, T/C (compound 0.316 µM) of the same molecule?
A: 98.4% and 83.7%

Q: What about the viability, T/C (compound 1 µM) of the same molecule?
A: 98.3% and 78.7%

Q: And the viability, T/C (compound 3.16 µM)?
A: 84.1% and 88.6%

Q: And the viability, T/C (compound 10 µM)?
A: 5.48% and 2.76%

Q: And the IC50 (curve of compound)?
A: 5210 nM
